Measured values from patent US20030232999A1, “POLYMETHINE COMPOUND AND NEAR-INFRARED ABSORBING MATERIAL COMPRISING SAME” (priority 2002, published 2003).

Experiment: Solubility in solvents (stated in words)
Assay type: physicochemical
Conditions: statement in words

Row | solubility in solvents | Compound
1 | low | CCN1/C(=C\C=C2/CCCC(/C=C/C3=[N+](CC)c4ccc(OC)cc4C3(C)C)=C2Cl)C(C)(C)c2cc(OC)ccc21.[I-] [compound B]
2 | low | COCCN1/C(=C\C=C2/CCCC(/C=C/C3=[N+](CCOC)c4ccccc4C3(C)C)=C2Cl)C(C)(C)c2ccccc21 [compound A]
